According to US20020169111A1, “Reversal of multidrug resistance in human colon carcinoma cells” (American Cyanamid Comany, priority 1998, published 2002):
Where two headings read alike, the source gives them in different places.

Tested on: S1-M1-3.2 cells
Conditions: for concentration giving 40% cell death (compound alone) / activity in the reversal assay compared to FTC, fold lower / Per Cent Survival with 3.2 μM mitoxantrone / Per Cent Survival Alone / Difference Score: S1-M1-3.2 cells; for activity in the reversal assay compared to FTC, fold lower: Table 7 versus Table 8; for Per Cent Survival Alone: 3 days; for Difference Score: survival alone minus survival with 3.2 μM mitoxantrone; for Toxicity (>20%): compound alone, concentration that causes greater than 20% cell death of S1-M1-3.2 cells; for IC50: read-out: IC50 (μM), resensitizing S1-M1-3.2 cells to mitoxantrone, with 3.2 μM mitoxantrone, 50% cancer cell death
Method: One of the first reported molecules with reversing activity was verapamil, a calcium channel blocker. […] Cells were plated into 96-well dishes (100 μl/well) in growth medium supplemented with 5% FBS. […] Reversal agents were tested from 0.1-80 μM (triplicate points per dose). In parallel wells, cells were grown in the presence of the reversal agent alone.
The Difference Score is the difference in the percentage of cells surviving when the drug was given alone minus the percentage of cells surviving when the drug was given along with the antitumor agent.
Cell survival was estimated using the Sulforhodamine (SRB) assay.

**Q.** For `COc1ccc2c3c(n(CC=C(C)C)c2c1)[C@H](C=C(C)C)N1C(=O)[C@@H]2CCCN2C(=O)[C@]1(O)[C@H]3O` [Fumitremorgin B], which “concentration giving 40% cell death (compound alone)” value is on record?
**A.** 20 µM

**Q.** And the “activity in the reversal assay compared to FTC, fold lower” value?
**A.** 14 fold

**Q.** And the “Per Cent Survival with 3.2 μM mitoxantrone” value (drug 0.1 μM)?
**A.** 91 ± 5 Per Cent

**Q.** And the “Per Cent Survival Alone” value (drug 0.1 μM alone)?
**A.** 94 ± 1 Per Cent

**Q.** And the “Difference Score” value (drug 0.1 μM)?
**A.** 3

**Q.** What about the “Per Cent Survival with 3.2 μM mitoxantrone” value (drug 0.5 μM) of the same molecule?
**A.** 90 ± 3 Per Cent

**Q.** And the “Per Cent Survival Alone” value (drug 0.5 μM alone)?
**A.** 95 ± 2 Per Cent

**Q.** What about the “Difference Score” value (drug 0.5 μM) of the same molecule?
**A.** 5

**Q.** What about the “Per Cent Survival with 3.2 μM mitoxantrone” value (drug 1 μM) of the same molecule?
**A.** 87 ± 1 Per Cent

**Q.** What about the “Per Cent Survival Alone” value (drug 1 μM alone) of the same molecule?
**A.** 93 ± 0 Per Cent

**Q.** What about the “Difference Score” value (drug 1 μM) of the same molecule?
**A.** 6

**Q.** And the “Per Cent Survival with 3.2 μM mitoxantrone” value (drug 5 μM)?
**A.** 51 ± 4 Per Cent

**Q.** What about the “Per Cent Survival Alone” value (drug 5 μM alone) of the same molecule?
**A.** 90 ± 2 Per Cent

**Q.** What about the “Difference Score” value (drug 5 μM) of the same molecule?
**A.** 39

**Q.** What about the “Per Cent Survival with 3.2 μM mitoxantrone” value (drug 10 μM) of the same molecule?
**A.** 35 ± 1 Per Cent

**Q.** And the “Per Cent Survival Alone” value (drug 10 μM alone)?
**A.** 91 ± 4 Per Cent

**Q.** And the “Difference Score” value (drug 10 μM)?
**A.** 56

**Q.** And the “Per Cent Survival with 3.2 μM mitoxantrone” value (drug 20 μM)?
**A.** 29 ± 1 Per Cent

**Q.** What about the “Per Cent Survival Alone” value (drug 20 μM alone) of the same molecule?
**A.** 59 ± 10 Per Cent

**Q.** And the “Difference Score” value (drug 20 μM)?
**A.** 30

**Q.** And the “Per Cent Survival with 3.2 μM mitoxantrone” value (drug 40 μM)?
**A.** 20 ± 2 Per Cent

**Q.** What about the “Per Cent Survival Alone” value (drug 40 μM alone) of the same molecule?
**A.** 41 ± 7 Per Cent

**Q.** What about the “Difference Score” value (drug 40 μM) of the same molecule?
**A.** 21

**Q.** And the “Per Cent Survival with 3.2 μM mitoxantrone” value (drug 80 μM)?
**A.** 10 ± 1 Per Cent

**Q.** And the “Per Cent Survival Alone” value (drug 80 μM alone)?
**A.** 16 ± 2 Per Cent

**Q.** And the “Difference Score” value (drug 80 μM)?
**A.** 6

**Q.** What about the “Toxicity (>20%)” value of the same molecule?
**A.** 15.0 µM

**Q.** What about the IC50 of the same molecule?
**A.** 5 µM

**Q.** Which results are given for `CC(C)C[C@H]1c2[nH]c3ccccc3c2C[C@@H]2C(=O)N3CCC[C@@H]3C(=O)N21` [Example 17b, (5aR,12S,14aR)-12-isobutyl-1,2,3,5a,6,11,12,14a-octahydro-5H,14H-pyrrolo[1″,2″:4′,5′]pyrazino[2′,1′:6,1]pyrido[3,4-b]indole-5,14-dione]?
**A.** Toxicity (>20%): >80.0 µM; IC50: 3.5 µM

**Q.** `CC(C)C[C@H]1c2[nH]c3ccccc3c2C[C@H]2C(=O)N3CC[C@H]3C(=O)N21` [Example 22b, (4aS,11S,13aS)-11-isobutyl-1,4a,5,10,11,13a-hexahydro-4H-azeto[1″,2″:4′,5′]pyrazino[2′,1′:6,1]pyrido[3,4-b]indole-4,13(2H)-dione] was tested. Which “Toxicity (>20%)” value did it give?
**A.** >80.0 µM

**Q.** What about the IC50 of the same molecule?
**A.** 2.5 µM

**Q.** With `CC(C)C[C@H]1c2[nH]c3ccccc3c2C[C@@H]2C(=O)N3CCC[C@H]3C(=O)N21` [Example 15b, (5aR,12S,14aS)-12-isobutyl-1,2,3,5a,6,11,12,14a-octahydro-5H,14H-pyrrolo[1″,2″:4′,5′]pyrazino[2′,1′:6,1]pyrido[3,4-b]indole-5,14-dione] as the molecule, how does the “Toxicity (>20%)” value read?
**A.** >80.0 µM

**Q.** What about the IC50 of the same molecule?
**A.** 15 µM

**Q.** Which “Toxicity (>20%)” value does the source give for `CC(C)C[C@@H]1c2[nH]c3ccccc3c2C[C@@H]2C(=O)N3CCC[C@H]3C(=O)N21` [Example 15a, (5aR,12R,14aS)-12-isobutyl-1,2,3,5a,6,11,12,14a-octahydro-5H,14H-pyrrolo[1″,2″:4′,5′]pyrazino[2′,1′:6,1]pyrido[3,4-b]indole-5,14-dione] here?
**A.** >80.0 µM

**Q.** What about the IC50 of the same molecule?
**A.** 35 µM

**Q.** How did the “reversal activity in S1-M1-3.2 cells (in words)” value turn out when `COc1ccc(CCN(C)CCCC(C#N)(c2ccc(OC)c(OC)c2)C(C)C)cc1OC` (centres unmarked) [Verapamil, reference compound] was run?
**A.** not reversed

**Q.** What about the “Per Cent Survival with 3.2 μM mitoxantrone” value (drug 0.1 μM) of the same molecule?
**A.** 98 ± 0 Per Cent

**Q.** What about the “Per Cent Survival Alone” value (drug 0.1 μM alone) of the same molecule?
**A.** 100 ± 1 Per Cent

**Q.** What about the “Per Cent Survival with 3.2 μM mitoxantrone” value (drug 0.5 μM) of the same molecule?
**A.** 98 ± 1 Per Cent

**Q.** And the “Per Cent Survival Alone” value (drug 0.5 μM alone)?
**A.** 99 ± 1 Per Cent

**Q.** And the “Per Cent Survival with 3.2 μM mitoxantrone” value (drug 1 μM)?
**A.** 98 ± 1 Per Cent

**Q.** What about the “Per Cent Survival Alone” value (drug 1 μM alone) of the same molecule?
**A.** 97 ± 2 Per Cent

**Q.** And the “Per Cent Survival with 3.2 μM mitoxantrone” value (drug 5 μM)?
**A.** 97 ± 0 Per Cent

**Q.** And the “Per Cent Survival Alone” value (drug 5 μM alone)?
**A.** 98 ± 5 Per Cent

**Q.** And the “Per Cent Survival with 3.2 μM mitoxantrone” value (drug 10 μM)?
**A.** 94 ± 0 Per Cent

**Q.** And the “Per Cent Survival Alone” value (drug 10 μM alone)?
**A.** 103 ± 4 Per Cent

**Q.** And the “Per Cent Survival with 3.2 μM mitoxantrone” value (drug 20 μM)?
**A.** 93 ± 2 Per Cent

**Q.** What about the “Per Cent Survival Alone” value (drug 20 μM alone) of the same molecule?
**A.** 99 ± 4 Per Cent

**Q.** What about the “Per Cent Survival with 3.2 μM mitoxantrone” value (drug 40 μM) of the same molecule?
**A.** 83 ± 3 Per Cent

**Q.** What about the “Per Cent Survival Alone” value (drug 40 μM alone) of the same molecule?
**A.** 93 ± 6 Per Cent

**Q.** And the “Per Cent Survival with 3.2 μM mitoxantrone” value (drug 80 μM)?
**A.** 58 ± 4 Per Cent

**Q.** What about the “Per Cent Survival Alone” value (drug 80 μM alone) of the same molecule?
**A.** 80 ± 24 Per Cent

**Q.** `COc1ccc2c3c4n(c2c1)[C@@H](C=C(C)C)OOC(C)(C)C[C@@H]4N1C(=O)[C@@H]2CCCN2C(=O)[C@]1(O)[C@H]3OCC=C(C)C` [Fumitremorgin A] was tested. Which “concentration giving 40% cell death (compound alone)” value did it give?
**A.** 20 µM

**Q.** And the “activity in the reversal assay compared to FTC, fold lower” value?
**A.** 20 fold

**Q.** What about the “Per Cent Survival with 3.2 μM mitoxantrone” value (drug 0.1 μM) of the same molecule?
**A.** 96 ± 2 Per Cent

**Q.** What about the “Per Cent Survival Alone” value (drug 0.1 μM alone) of the same molecule?
**A.** 95 ± 1 Per Cent

**Q.** What about the “Difference Score” value (drug 0.1 μM) of the same molecule?
**A.** −1

**Q.** And the “Per Cent Survival with 3.2 μM mitoxantrone” value (drug 0.5 μM)?
**A.** 95 ± 4 Per Cent

**Q.** And the “Per Cent Survival Alone” value (drug 0.5 μM alone)?
**A.** 96 ± 2 Per Cent

**Q.** What about the “Difference Score” value (drug 0.5 μM) of the same molecule?
**A.** 1

**Q.** And the “Per Cent Survival with 3.2 μM mitoxantrone” value (drug 1 μM)?
**A.** 94 ± 5 Per Cent

**Q.** And the “Per Cent Survival Alone” value (drug 1 μM alone)?
**A.** 96 ± 1 Per Cent

**Q.** What about the “Difference Score” value (drug 1 μM) of the same molecule?
**A.** 2

**Q.** And the “Per Cent Survival with 3.2 μM mitoxantrone” value (drug 5 μM)?
**A.** 64 ± 4 Per Cent

**Q.** What about the “Per Cent Survival Alone” value (drug 5 μM alone) of the same molecule?
**A.** 96 ± 1 Per Cent

**Q.** And the “Difference Score” value (drug 5 μM)?
**A.** 32

**Q.** What about the “Per Cent Survival with 3.2 μM mitoxantrone” value (drug 10 μM) of the same molecule?
**A.** 40 ± 6 Per Cent

**Q.** What about the “Per Cent Survival Alone” value (drug 10 μM alone) of the same molecule?
**A.** 89 ± 9 Per Cent

**Q.** And the “Difference Score” value (drug 10 μM)?
**A.** 49

**Q.** What about the “Per Cent Survival with 3.2 μM mitoxantrone” value (drug 20 μM) of the same molecule?
**A.** 35 ± 5 Per Cent

**Q.** And the “Per Cent Survival Alone” value (drug 20 μM alone)?
**A.** 59 ± 4 Per Cent

**Q.** And the “Difference Score” value (drug 20 μM)?
**A.** 24

**Q.** And the “Per Cent Survival with 3.2 μM mitoxantrone” value (drug 40 μM)?
**A.** 34 ± 4 Per Cent

**Q.** What about the “Per Cent Survival Alone” value (drug 40 μM alone) of the same molecule?
**A.** 50 ± 8 Per Cent

**Q.** And the “Difference Score” value (drug 40 μM)?
**A.** 16

**Q.** And the “Per Cent Survival with 3.2 μM mitoxantrone” value (drug 80 μM)?
**A.** 34 ± 4 Per Cent

**Q.** And the “Per Cent Survival Alone” value (drug 80 μM alone)?
**A.** 41 ± 8 Per Cent

**Q.** And the “Difference Score” value (drug 80 μM)?
**A.** 7

**Q.** And the “Toxicity (>20%)” value?
**A.** 15.0 µM

**Q.** And the IC50?
**A.** 7 µM

**Q.** `O=C(NCCC[C@H]1c2[nH]c3ccccc3c2C[C@H]2C(=O)N3CCC[C@H]3C(=O)N21)[C@@H]1CCCN1` [Example 33, (2S)-N-{3-[(5aS,12S,14aS)-5,14-dioxo-2,3,5a,6,11,12,14,14a-octahydro-1H,5H-pyrrolo[1″,2″:4′,5′]pyrazino[2′,1′:6,1]pyrido[3,4-b]indol-12-yl]propyl}pyrrolidine-2-carboxamide] was tested. Which “Toxicity (>20%)” value did it give?
**A.** >80 µM

**Q.** What about the IC50 of the same molecule?
**A.** > 80 µM

**Q.** What does the source list for `COc1ccc2c3c(n(CC=C(C)C)c2c1)[C@H](C=C(C)C)N1C(=O)[C@@H]2CCCN2C(=O)[C@@H]1C3` [Example 34]?
**A.** Toxicity (>20%): 2.0 µM; IC50: 1 µM

**Q.** How did the “Toxicity (>20%)” value turn out when `O=C(NCCC[C@@H]1c2[nH]c3ccccc3c2C[C@H]2C(=O)N3CCC[C@H]3C(=O)N12)OCc1ccccc1` [Example 24a, Benzyl 3-[(5aS,12R,14aS)-5,14-dioxo-2,3,5a,6,11,12,14,14a-octahydro-1H,5H-pyrrolo[1″,2″:4′,5′]pyrazino[2′,1′:6,1]pyrido[3,4-b]indol-12-yl]propylcarbamate] was run?
**A.** 50 µM

**Q.** What about the IC50 of the same molecule?
**A.** 10 µM

**Q.** For `NCCC[C@H]1c2[nH]c3ccccc3c2C[C@H]2C(=O)N3CCC[C@H]3C(=O)N21` [Example 29b, (5aS,12S,14aS)-12-(3-aminopropyl)-1,2,3,5a,6,11,12,14a-octahydro-5H,14H-pyrrolo[1″,2″:4′,5′]pyrazino[2′,1′:6,1]pyrido[3,4-b]indole-5,14-dione], which “Toxicity (>20%)” value is on record?
**A.** >80 µM

**Q.** What about the IC50 of the same molecule?
**A.** > 80 µM
